Test results taken from paper PMC6364417, “Kinase inhibitor library screening identifies synergistic drug combinations effective in sensitive and resistant melanoma cells” (Journal of Experimental & Clinical Cancer Research : CR, 2019).
Like-named read-outs stand apart in the source and are kept apart here. Each block holds one compound with its values, some of them ahead of it.

Assays:
[1] = tested on: 501Mel cells (parental); assay: Kinase inhibitor library screening, PrestoBlue cell viability, 1 or 10 μM, 72 h
In short: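 Two concentrations of every kinase inhibitor were tested on each melanoma line and its resistant counterparts, and cell survival was quantified by PrestoBlue against untreated wells.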

[2] = tested on: 501Mel-GP cells (Dabrafenib-resistant); assay: as above
[3] = tested on: 501Mel-XP cells (Vemurafenib-resistant); assay: as above
[4] = tested on: A375 cells (parental); assay: as above
[5] = tested on: A375-GP cells (Dabrafenib-resistant); assay: as above
[6] = tested on: A375-XP cells (Vemurafenib-resistant); assay: as above
[7] = tested on: IGR37 cells (parental); assay: as above
[8] = tested on: IGR37-GP cells (Dabrafenib-resistant); assay: as above
[9] = tested on: IGR37-XP cells (Vemurafenib-resistant); assay: as above
[10] = tested on: A375 cells (parental); assay: Dose-response curves and IC50, PrestoBlue cell viability, 72 h; type: cell-based, human; settings: for IC50: read-out: Half-maximal inhibitory concentration value (IC50), Mean
[11] = tested on: A375-XP cells (Vemurafenib-resistant); assay: as above; type: cell-based, human; settings: n.e. = did not suppress growth below 50% in the tested concentration range; for IC50: read-out: Half-maximal inhibitory concentration value (IC50), Mean
[12] = tested on: A375-GP cells (Dabrafenib-resistant); assay: as above; type: cell-based, human; settings: n.e. = did not suppress growth below 50% in the tested concentration range; for IC50: read-out: Half-maximal inhibitory concentration value (IC50), Mean
[13] = tested on: A375 cells; assay: Synergy determination with the Chou-Talalay method (CompuSyn), cell viability 72 h; type: cell-based, human; settings: 72 h cell viability, Chou-Talalay / Synergyfinder
Protocol: The Chou-Talalay method to determine possible synergistic effects of selected kinase inhibitor combinations was used as described in [19]. […] Cells were treated with either single inhibitors or combinations thereof at indicated amounts in technical triplicates. The amounts were pre-determined from each inhibitor’s IC50 value and inhibitors were assayed in a defined dilution series and at constant ratio when combined. […] Combination Index (CI) values showing either synergy (< 1) or antagonism (> 1) were calculated with the CompuSyn software (ComboSyn, Inc).

[14] = tested on: IGR37-XP cells (Vemurafenib-resistant); assay: Dose-response curves and IC50, PrestoBlue cell viability, 72 h; settings: Homo sapiens, 72 h, read-out: Half-maximal inhibitory concentration (IC50)
Protocol: (§1) All inhibitors used in this study were purchased from Selleck Chemicals (Houston, USA). They were dissolved in DMSO to a stock concentration of 10 mM according to the manufacturer’s instructions and stored at − 80 °C. […] Cell viability was measured with the PrestoBlue Cell Viability Reagent (ThermoFisher Scientific) on a CLARIOstar Monochromator microplate reader (BMG Labtech). Using the GraphPad Prism v5.04 software, the half-maximal inhibitor concentration values (IC50) were determined from the curve using the nonlinear log (inhibitor) vs response-variable slope (four parameters) equation. […] The IC50’s were determined for 3 biological replicates and are listed with their standard deviations.
(§2) Values represent the mean of at least three biological replicates; one representative curve of at least 3 biological replicates is depicted. _XP: cells resistant to Vemurafenib (red), _GP: cells resistant to Dabrafenib (green).

[15] = tested on: IGR37-GP cells (Dabrafenib-resistant); assay: as above; settings: Homo sapiens, 72 h, read-out: Half-maximal inhibitory concentration (IC50)
Protocol: as §1, §2

[16] = Homo sapiens, A-375, n.e. = did not suppress growth below 50% in the tested concentration range
[17] = n.e. = did not suppress growth below 50% in the tested concentration range

Compound: O=C(NC1CCNCC1)c1[nH]ncc1NC(=O)c1c(Cl)cccc1Cl [AT7519, reference compound]
cell viability (kinase inhibitor library screening) ([1]; 501Mel Parental, 1μΜ, 72 h): 82.3%
cell viability (kinase inhibitor library screening) ([1]; 501Mel Parental, 10μΜ, 72 h): 1.4%
cell viability (kinase inhibitor library screening) ([2]; 501Mel GP, 1μΜ, 72 h): 96.2%
cell viability (kinase inhibitor library screening) ([2]; 501Mel GP, 10μΜ, 72 h): 0.428%
cell viability (kinase inhibitor library screening) ([3]; 501Mel XP, 1μΜ, 72 h): 73.2%
cell viability (kinase inhibitor library screening) ([3]; 501Mel XP, 10μΜ, 72 h): 0.0524%
cell viability (kinase inhibitor library screening) ([4]; A375 Parental, 10μΜ, 72 h): 8.2%
cell viability (kinase inhibitor library screening) ([4]; A375 Parental, 1μΜ, 72 h): 30.7%
cell viability (kinase inhibitor library screening) ([5]; A375 GP, 1μΜ, 72 h): 17.7%
cell viability (kinase inhibitor library screening) ([5]; A375 GP, 10μΜ, 72 h): 4.8%
cell viability (kinase inhibitor library screening) ([6]; A375 XP, 1μΜ, 72 h): 37.2%
cell viability (kinase inhibitor library screening) ([6]; A375 XP, 10μΜ, 72 h): 7.6%
cell viability (kinase inhibitor library screening) ([7]; IGR37 Parental, 1μΜ, 72 h): 79.7%
cell viability (kinase inhibitor library screening) ([7]; IGR37 Parental, 10μΜ, 72 h): 2.2%
cell viability (kinase inhibitor library screening) ([8]; IGR37 GP, 1μΜ, 72 h): 35.9%
cell viability (kinase inhibitor library screening) ([8]; IGR37 GP, 10μΜ, 72 h): 3.9%
cell viability (kinase inhibitor library screening) ([9]; IGR37 XP, 1μΜ, 72 h): 10.8%
cell viability (kinase inhibitor library screening) ([9]; IGR37 XP, 10μΜ, 72 h): 2.4%
IC50 [10, 16]: 544 nM
IC50 ([11]; Homo sapiens): 631 nM
IC50 ([12]; Homo sapiens): 645 nM
synergistic effects with the BRAF inhibitors Vemurafenib and/or Dabrafenib (in words) [13]: did not act synergistically

Compound: O=C(Nc1cc(C(F)(F)F)cc(C(F)(F)F)c1)c1cc(Cl)ccc1O [IMD 0354, reference compound]
viability at 1 µM ([1]; Homo sapiens, 72 h, read-out: cell viability, 501Mel Parental, 1μΜ): 34.2%
viability at 10 µM ([1]; Homo sapiens, 72 h, read-out: cell viability, 501Mel Parental, 10μΜ): -0.0333%
viability at 1 µM ([2]; Homo sapiens, 72 h, read-out: cell viability, 501Mel GP, 1μΜ): 25.5%
viability at 10 µM ([2]; Homo sapiens, 72 h, read-out: cell viability, 501Mel GP, 10μΜ): -0.276%
viability at 1 µM ([3]; Homo sapiens, 72 h, read-out: cell viability, 501Mel XP, 1μΜ): 26%
viability at 10 µM ([3]; Homo sapiens, 72 h, read-out: cell viability, 501Mel XP, 10μΜ): -0.369%
viability at 1 µM ([4]; Homo sapiens, A-375, 72 h, read-out: cell viability, A375 Parental, 1μΜ): 23.1%
viability at 10 µM ([4]; Homo sapiens, A-375, 72 h, read-out: cell viability, A375 Parental, 10μΜ): 6.5%
viability at 1 µM ([5]; Homo sapiens, A-375, 72 h, read-out: cell viability, A375 GP, 1μΜ): 25.5%
viability at 10 µM ([5]; Homo sapiens, A-375, 72 h, read-out: cell viability, A375 GP, 10μΜ): 8.1%
viability at 1 µM ([6]; Homo sapiens, A-375, 72 h, read-out: cell viability, A375 XP, 1μΜ): 29.7%
viability at 10 µM ([6]; Homo sapiens, A-375, 72 h, read-out: cell viability, A375 XP, 10μΜ): 4.8%
viability at 1 µM ([7]; Homo sapiens, IGR-37, 72 h, read-out: cell viability, IGR37 Parental, 1μΜ): 59.5%
viability at 10 µM ([7]; Homo sapiens, IGR-37, 72 h, read-out: cell viability, IGR37 Parental, 10μΜ): 2.8%
viability at 1 µM ([8]; Homo sapiens, IGR-37, 72 h, read-out: cell viability, IGR37 GP, 1μΜ): 46.7%
viability at 10 µM ([8]; Homo sapiens, IGR-37, 72 h, read-out: cell viability, IGR37 GP, 10μΜ): 15.4%
viability at 1 µM ([9]; Homo sapiens, IGR-37, 72 h, read-out: cell viability, IGR37 XP, 1μΜ): 41.2%
viability at 10 µM ([9]; Homo sapiens, IGR-37, 72 h, read-out: cell viability, IGR37 XP, 10μΜ): 4.1%
IC50 [10, 16]: 640 nM
IC50 ([11]; Homo sapiens): 1000 nM
IC50 ([12]; Homo sapiens): 738 nM
synergistic effects with the BRAF inhibitors Vemurafenib and/or Dabrafenib (in words) [13]: did not act synergistically

Continued, in another order:

IC50 [11]: 46 nM
IC50 [12]: 37 nM
Compound: O=C(Cc1ccc(-c2ccc(OCCN3CCOCC3)cc2)cn1)NCc1ccccc1 [KX2-391, reference compound]
cell viability (kinase inhibitor library screening) ([1]; 501Mel Parental, 1μΜ, in %): 16.9
cell viability (kinase inhibitor library screening) ([1]; 501Mel Parental, 10μΜ, in %): 24.4
cell viability (kinase inhibitor library screening) ([2]; 501Mel GP, 1μΜ, in %): 15.9
cell viability (kinase inhibitor library screening) ([2]; 501Mel GP, 10μΜ, in %): 19.8
cell viability (kinase inhibitor library screening) ([3]; 501Mel XP, 1μΜ, in %): 9.9
cell viability (kinase inhibitor library screening) ([3]; 501Mel XP, 10μΜ, in %): 14.1
cell viability (kinase inhibitor library screening) ([4]; A375 Parental, 1μΜ, in %): 20.3
cell viability (kinase inhibitor library screening) ([4]; A375 Parental, 10μΜ, in %): 16.5
cell viability (kinase inhibitor library screening) ([5]; A375 GP, 1μΜ, in %): 22.8
cell viability (kinase inhibitor library screening) ([5]; A375 GP, 10μΜ, in %): 19.7
cell viability (kinase inhibitor library screening) ([6]; A375 XP, 1μΜ, in %): 21.2
cell viability (kinase inhibitor library screening) ([7]; IGR37 Parental, 1μΜ, in %): 11.7
cell viability (kinase inhibitor library screening) ([7]; IGR37 Parental, 10μΜ, in %): 19.5
cell viability (kinase inhibitor library screening) ([8]; IGR37 GP, 1μΜ, in %): 70.8
cell viability (kinase inhibitor library screening) ([8]; IGR37 GP, 10μΜ, in %): 68.8
cell viability (kinase inhibitor library screening) ([9]; IGR37 XP, 1μΜ, in %): 45.0
cell viability (kinase inhibitor library screening) ([9]; IGR37 XP, 10μΜ, in %): 36.6
IC50 [10, 17]: 42 nM
synergistic effects with the BRAF inhibitors Vemurafenib and/or Dabrafenib (in words) [13]: did not act synergistically

IC50 [11]: 53 nM
IC50 [12]: 45 nM
Compound: Cc1ccc([N+](=O)[O-])cc1S(=O)(=O)N(C)/N=C/c1cnc2ccc(Br)cn12 [PIK-75, reference compound]
Cell viability in kinase inhibitor library screening, 501Mel Parental, 1μΜ ([1]; 501Mel Parental, 1μΜ, 72 h, in %): 0.758
Cell viability in kinase inhibitor library screening, 501Mel Parental, 10μΜ ([1]; 501Mel Parental, 10μΜ, 72 h, in %): 0.0735
Cell viability in kinase inhibitor library screening, 501Mel GP, 1μΜ ([2]; 501Mel GP, 1μΜ, 72 h, in %): 0.164
Cell viability in kinase inhibitor library screening, 501Mel GP, 10μΜ ([2]; 501Mel GP, 10μΜ, 72 h, in %): 0.3
Cell viability in kinase inhibitor library screening, 501Mel XP, 1μΜ ([3]; 501Mel XP, 1μΜ, 72 h, in %): -0.0746
Cell viability in kinase inhibitor library screening, 501Mel XP, 10μΜ ([3]; 501Mel XP, 10μΜ, 72 h, in %): -0.125
Cell viability in kinase inhibitor library screening, A375 Parental, 10μΜ ([4]; A375 Parental, 10μΜ, 72 h): 1.8
Cell viability in kinase inhibitor library screening, A375 Parental, 1μΜ ([4]; A375 Parental, 1μΜ, 72 h): 4.1
Cell viability in kinase inhibitor library screening, A375 GP, 1μΜ ([5]; A375 GP, 1μΜ, 72 h): 4.0
Cell viability in kinase inhibitor library screening, A375 GP, 10μΜ ([5]; A375 GP, 10μΜ, 72 h): 1.2
Cell viability in kinase inhibitor library screening, A375 XP, 1μΜ ([6]; A375 XP, 1μΜ, 72 h): 5.1
Cell viability in kinase inhibitor library screening, A375 XP, 10μΜ ([6]; A375 XP, 10μΜ, 72 h): 2.3
Cell viability in kinase inhibitor library screening, IGR37 Parental, 1μΜ ([7]; IGR37 Parental, 1μΜ, 72 h, in %): 1.2
Cell viability in kinase inhibitor library screening, IGR37 Parental, 10μΜ ([7]; IGR37 Parental, 10μΜ, 72 h, in %): 0.6
Cell viability in kinase inhibitor library screening, IGR37 GP, 10μΜ ([8]; IGR37 GP, 10μΜ, 72 h): 1.1%
Cell viability in kinase inhibitor library screening, IGR37 GP, 1μΜ ([8]; IGR37 GP, 1μΜ, 72 h, in %): 1.7
Cell viability in kinase inhibitor library screening, IGR37 XP, 10μΜ ([9]; IGR37 XP, 10μΜ, 72 h): 0.7%
Cell viability in kinase inhibitor library screening, IGR37 XP, 1μΜ ([9]; IGR37 XP, 1μΜ, 72 h, in %): 1.2
IC50 [10, 17]: 55 nM
synergistic effects with the BRAF inhibitors Vemurafenib and/or Dabrafenib (in words) [13]: synergistic effects only with Dabrafenib

Half-maximal inhibitory concentration value (IC50), Mean [11]: n.e.
Half-maximal inhibitory concentration value (IC50), Mean [12]: n.e.
Compound: CO[C@H]1C[C@@H]2CC[C@@H](C)[C@@](O)(O2)C(=O)C(=O)N2CCCC[C@H]2C(=O)O[C@H]([C@H](C)C[C@@H]2CC[C@@H](OC(=O)C(C)(CO)CO)[C@H](OC)C2)CC(=O)[C@H](C)/C=C(\C)[C@@H](O)[C@@H](OC)C(=O)[C@H](C)C[C@H](C)/C=C/C=C/C=C/1C [Temsirolimus]
Half-maximal inhibitory concentration value (IC50), Mean [10, 17]: n.e.
IC50 [14]: 6930 nM
IC50 [15]: 9450 nM
